Values joined by “and” are separate entries in the source; they are usually repeats but may differ in a detail not shown here. Equal entries are not always repeated. Inconclusive results and toxic doses are left out. No stated cut-off is given here; in the data, active means T/C of 150% or more; inactive means T/C below 125%.
Tested on: L1210 leukemia ip in BDF1 mice, survival T/C
Test: NCI In Vivo Anticancer Drug Screen. Data for tumor model L1210 Leukemia (intraperitoneal) in B6D2F1 (BDF1) mice
Settings: endpoint: mean survival time, higher = longer survival
In short: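 Read-out is survival time, reported as the treated-group measurement over the vehicle-control measurement.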

[1] = dose: 100.0 mg/kg/injection, schedule: Q04DX002 (ip), vehicle: Klucel (hydroxypropylcellulose) (HPC)
[2] = dose: 200.0 mg/kg/injection, schedule: Q04DX002 (ip), vehicle: Klucel (hydroxypropylcellulose) (HPC)
[3] = dose: 400.0 mg/kg/injection, schedule: Q04DX002 (ip), vehicle: Klucel (hydroxypropylcellulose) (HPC)
[4] = dose: 100.0 mg/kg/injection, schedule: Q01DX009 (ip), vehicle: saline with Tween-80
[5] = dose: 100.0 mg/kg/injection, schedule: Q04DX003 (ip), vehicle: saline
[6] = dose: 200.0 mg/kg/injection, schedule: Q01DX009 (ip), vehicle: saline with Tween-80
[7] = dose: 200.0 mg/kg/injection, schedule: Q04DX003 (ip), vehicle: saline
[8] = dose: 400.0 mg/kg/injection, schedule: Q04DX003 (ip), vehicle: saline
[9] = dose: 100.0 mg/kg/injection, schedule: Q04DX003 (ip), vehicle: saline with Tween-80
[10] = dose: 200.0 mg/kg/injection, schedule: Q04DX003 (ip), vehicle: saline with Tween-80
[11] = dose: 400.0 mg/kg/injection, schedule: Q04DX003 (ip), vehicle: saline with Tween-80
[12] = dose: 100.0 mg/kg/injection, schedule: Q01DX009 (ip), vehicle: Klucel (hydroxypropylcellulose) (HPC)
[13] = dose: 200.0 mg/kg/injection, schedule: Q01DX009 (ip), vehicle: Klucel (hydroxypropylcellulose) (HPC)
[14] = dose: 400.0 mg/kg/injection, schedule: Q01DX009 (ip), vehicle: Klucel (hydroxypropylcellulose) (HPC)
[15] = dose: 100.0 mg/kg/injection, schedule: Q04DX003 (ip), vehicle: Klucel (hydroxypropylcellulose) (HPC)
[16] = dose: 200.0 mg/kg/injection, schedule: Q04DX003 (ip), vehicle: Klucel (hydroxypropylcellulose) (HPC)
[17] = dose: 400.0 mg/kg/injection, schedule: Q04DX003 (ip), vehicle: Klucel (hydroxypropylcellulose) (HPC)

Measured: T/C

CNc1cccc2c1C(=O)c1ccccc1C2=O
inactive: [1] 96 % of control | [2] 92 % of control | [3] 96 % of control

CC1=CC(=O)C(C(O)(C(F)(F)Cl)C(F)(F)Cl)C(C)(C)C1 (centres undefined) (tested in a mixture with another compound)
inactive: [4] 98 % of control | [5] 93 % of control | [6] 102 % of control | [7] 98 % of control | [8] 104 % of control

COc1ccc(C(C)=O)cc1OC
inactive: dose: 100.0 mg/kg/injection, schedule: Q01DX009 (ip), vehicle: saline sonified 92 % of control | dose: 200.0 mg/kg/injection, schedule: Q01DX009 (ip), vehicle: saline sonified 88 % of control | dose: 400.0 mg/kg/injection, schedule: Q01DX009 (ip), vehicle: saline sonified 100 % of control

CN(C(=O)Sc1ccc([N+](=O)[O-])cc1)c1ccccc1
inactive: [9] 91 % of control | [10] 89 % of control | [11] 91 % of control

O=[N+]([O-])c1ccccc1N=Nc1c(O)[nH]c2ccc(F)cc12
inactive: dose: 75.0 mg/kg/injection, schedule: Q01DX001 (ip), vehicle: acetone 96 % of control | dose: 150.0 mg/kg/injection, schedule: Q01DX001 (ip), vehicle: acetone 96 % of control | dose: 300.0 mg/kg/injection, schedule: Q01DX001 (ip), vehicle: acetone 103 % of control

O=C1c2ccccc2C(=O)N1c1ccccc1
inactive: [12] 98 % of control | [1] 91 % of control | [13] 98 % of control | [2] 94 % of control | [14] 95 % of control | [3] 88 % of control

CC(OC1CCCCO1)C1CCC2C3CCC4=CC(=O)CCC4(C)C3CCC12C (centres undefined)
inactive: dose: 50.0 mg/kg/injection, schedule: Q01DX001 (sc), vehicle: steriod suspending solution 103 % of control | dose: 100.0 mg/kg/injection, schedule: Q01DX001 (sc), vehicle: steriod suspending solution 105 % of control | dose: 200.0 mg/kg/injection, schedule: Q01DX001 (sc), vehicle: steriod suspending solution 103 % of control | dose: 400.0 mg/kg/injection, schedule: Q01DX001 (sc), vehicle: steriod suspending solution 111 % of control

CC(C)C(=O)NN
inactive: [5] 98 % of control | [7] 101 % of control | [8] 101 % of control

C[N+](C)(C)CCC[N+]1(C)CC2CC=CCC2C1 (centres undefined)
inactive: dose: 100.0 mg/kg/injection, schedule: Q01DX Z (ip), vehicle: saline 97 % of control | dose: 145.0 mg/kg/injection, schedule: Q01DX Z (ip), vehicle: saline 97 % of control | dose: 220.0 mg/kg/injection, schedule: Q01DX Z (ip), vehicle: saline 87 % of control

Brc1cnc(OCc2ccccc2)nc1OCc1ccccc1
inactive: [12] 91 % of control | [4] 103 % of control | [15] 96 % of control | [9] 103 % of control | [13] 102 % of control | [6] 102 % of control | [16] 100 % of control | [10] 97 % of control | [14] 104 % of control | dose: 400.0 mg/kg/injection, schedule: Q01DX009 (ip), vehicle: saline with Tween-80 101 % of control | [17] 93 % of control | [11] 92 % of control

O=C(C1CC1c1ccccc1)N1CCN(c2ccccc2)CC1 (centres undefined)
inactive: [12] 98 % of control | [13] 90 % of control | [14] 100 % of control

NC(N)=N/N=C/C(=N\N=C(N)N)C(O)CO (centres undefined)
inactive: dose: 75.0 mg/kg/injection, schedule: Q01DX001 (ip), vehicle: saline 109 % of control and 100 % of control | dose: 150.0 mg/kg/injection, schedule: Q01DX001 (ip), vehicle: saline 105 % of control and 106 % of control | dose: 300.0 mg/kg/injection, schedule: Q01DX001 (ip), vehicle: saline 101 % of control and 105 % of control

CSc1ncnc2c1nnn2C1OC(COC(=O)c2ccccc2)C(OC(=O)c2ccccc2)C1OC(=O)c1ccccc1 (centres undefined)
inactive: dose: 50.0 mg/kg/injection, schedule: Q01DX009 (ip), vehicle: gum acacia 93 % of control | dose: 100.0 mg/kg/injection, schedule: Q01DX001 (ip), vehicle: gum acacia 92 % of control | dose: 100.0 mg/kg/injection, schedule: Q01DX009 (ip), vehicle: gum acacia 89 % of control | dose: 200.0 mg/kg/injection, schedule: Q01DX001 (ip), vehicle: gum acacia 87 % of control

ClCC1COCO1 (centres undefined)
inactive: dose: 12.5 mg/kg/injection, schedule: Q01DX009 (ip), vehicle: saline with Tween-80 107 % of control | dose: 25.0 mg/kg/injection, schedule: Q01DX009 (ip), vehicle: saline with Tween-80 102 % of control | dose: 50.0 mg/kg/injection, schedule: Q01DX009 (ip), vehicle: saline with Tween-80 106 % of control

CC(Cc1ccccc1)N(C)CC1C(=O)C2CCC1C2 (centres undefined)
inactive: dose: 75.0 mg/kg/injection, schedule: Q01DX001 (ip), vehicle: carboxymethylcellulose (CMC) 102 % of control | dose: 150.0 mg/kg/injection, schedule: Q01DX001 (ip), vehicle: carboxymethylcellulose (CMC) 96 % of control | dose: 300.0 mg/kg/injection, schedule: Q01DX001 (ip), vehicle: carboxymethylcellulose (CMC) 96 % of control

Nc1ccc2c(c1)C(=O)c1c(F)cccc1-2
inactive: dose: 100.0 mg/kg/injection, schedule: Q04DX003 (ip), vehicle: acetone 98 % of control | dose: 200.0 mg/kg/injection, schedule: Q04DX003 (ip), vehicle: acetone 94 % of control | dose: 400.0 mg/kg/injection, schedule: Q04DX003 (ip), vehicle: acetone 91 % of control

CC1(C)N=C(c2ccccc2)C(c2ccccc2)=N1
inactive: [12] 105 % of control | [15] 108 % of control | [13] 98 % of control | [16] 97 % of control | [17] 115 % of control

O=[N+]([O-])CC(O)c1ccc2ccccc2n1 (centres undefined)
inactive: dose: 50.0 mg/kg/injection, schedule: Q01DX009 (ip), vehicle: water 100 % of control | dose: 100.0 mg/kg/injection, schedule: Q01DX009 (ip), vehicle: saline 91 % of control | dose: 100.0 mg/kg/injection, schedule: Q01DX009 (ip), vehicle: water 100 % of control | [5] 93 % of control | dose: 200.0 mg/kg/injection, schedule: Q01DX009 (ip), vehicle: saline 94 % of control | dose: 200.0 mg/kg/injection, schedule: Q01DX009 (ip), vehicle: water 87 % of control | [7] 90 % of control

O=C1OC(/C=C/c2ccccc2)=NC/1=C\c1ccc2c(c1)OCO2
inactive: dose: 100.0 mg/kg/injection, schedule: Q04DX002 (ip), vehicle: saline with Tween-80 92 % of control | dose: 200.0 mg/kg/injection, schedule: Q04DX002 (ip), vehicle: saline with Tween-80 89 % of control | dose: 400.0 mg/kg/injection, schedule: Q04DX002 (ip), vehicle: saline with Tween-80 92 % of control

CCOC(=O)CN1CCC(C2(c3cc4ccccc4[nH]3)OCCO2)CC1
inactive: dose: 12.0 mg/kg/injection, schedule: Q04DX003 (ip), vehicle: Klucel (hydroxypropylcellulose) (HPC) 91 % of control | dose: 25.0 mg/kg/injection, schedule: Q04DX003 (ip), vehicle: Klucel (hydroxypropylcellulose) (HPC) 89 % of control | dose: 50.0 mg/kg/injection, schedule: Q04DX003 (ip), vehicle: Klucel (hydroxypropylcellulose) (HPC) 100 % of control | [12] 97 % of control | [13] 103 % of control | [14] 101 % of control

[CH3][Sn]([CH3])([Cl])[CH2]Cl
inactive: dose: 0.39 mg/kg/injection, schedule: Q01DX009 (ip), vehicle: saline 112 % of control | dose: 0.78 mg/kg/injection, schedule: Q01DX009 (ip), vehicle: saline 119 % of control | dose: 1.56 mg/kg/injection, schedule: Q01DX009 (ip), vehicle: saline 97 % of control and 91 % of control | dose: 3.12 mg/kg/injection, schedule: Q01DX009 (ip), vehicle: saline 87 % of control

O=C(Nc1ccc(NC(=O)c2ccccc2)c2c1C(=O)c1ccccc1C2=O)c1ccccc1
inactive: [12] 96 % of control | [1] 100 % of control | [13] 96 % of control | [2] 93 % of control | [14] 107 % of control | [3] 103 % of control

O=C(Nc1nc2ccccc2s1)C(F)(F)F
inactive: dose: 100.0 mg/kg/injection, schedule: Q01DX001 (ip), vehicle: saline 102 % of control | dose: 200.0 mg/kg/injection, schedule: Q01DX001 (ip), vehicle: saline 93 % of control | dose: 400.0 mg/kg/injection, schedule: Q01DX001 (ip), vehicle: saline 102 % of control

N=C1SCc2ccccc21
inactive: [12] 104 % of control

From PubChem BioAssay AID248 (DTP/NCI, 2004)
